Assay results reported in patent US8889727B2, “Topical antifungal agent” (Meiji Seika Pharma Co., Ltd., priority 2011, dated 2014).
≈ marks a conversion by molar mass, not a printed value. Where a name gives a salt, the structure may show the parent alone.

Key:
[1] = system: T. mentagrophytes ATCC18748; test: Measurement of antifungal activity (MIC, WST8 growth inhibition); type: cell-based; conditions: Trichophyton mentagrophytes, 72 h; 80% growth inhibition concentration; T. mentagrophytes ATCC18748, RPMI1640/MOPS, 28° C., 3 days
Method: (§1) The compounds for evaluation were dissolved in dimethyl sulfoxide (DMSO) and used. As the test medium, RPMI1640 medium containing 0.165 M 3-morpholino propane sulfonic acid (MOPS) was used. As the test strain, T. mentagrophytes ATCC18748 or T. rubrum ATCC10218 was used. 100 μL of the test strain each at a concentration of 1×10^4 conidia/mL was dispensed, mixed with compounds for evaluation on 96 well half area plate so that the concentration of DMSO becomes 1%, and cultured at 28° C. for 3 days (for T. mentagrophytes) or for 4 days (for T. rubrum). Then, 5 μL of Cell Counting Kit8 (WST8) was added and the absorbances at 450 nm and 595 nm was measured as background. Subsequently, they were incubated at 28° C. for 5 hours (for T. mentagrophytes) or overnight (for T. rubrum) to color, and again the absorbances at 450 nm and 595 nm was measured, and then calculated the growth inhibition percentages using the differences from the background, and 80% growth inhibition concentration was regarded as MIC (μg/ml). Measurement of antifungal activity was conducted by the following method. Compounds for evaluation were dissolved in dimethyl sulfoxide (DMSO) and used. As the test medium, RPMI1640 medium containing 0.165 M 3-morpholinopropane sulfonic acid (MOPS) was used. As the test strain, T. mentagrophytes ATCC18748 or T. rubrum ATCC10218 was used. 100 μL of the test strain was dispensed at a concentration of 1×10^4 conidia/mL, mixed with compounds for evaluation on 96 well half area plate so that the concentration of DMSO becomes 1%, and cultured at a culture temperature of 28° C. for 3 days (for T. mentagrophytes) or for 4 days (for T. rubrum). Then, 5 μL of Cell Counting Kit8 (WST8) was added and the absorbances at 450 nm and 595 nm was measured as background. Subsequently, they were incubated at 28° C. for 5 hours (for T. mentagrophytes) or overnight (for T. rubrum), and again measured the absorbances at 450 nm and 595 nm was measured, and then calculated the growth inhibition percentages using the differences from the background, and 80% growth inhibition concentration was regarded as MIC (μg/ml).

T. rubrum ATCC10218 = test: as above; type: cell-based; conditions: Trichophyton rubrum, 96 h; 80% growth inhibition concentration; T. rubrum ATCC10218, RPMI1640/MOPS, 28° C., 4 days
Method: as §1

[2] = Nail permeability test (bovine hoof slice on agarose); type: in vitro ADME; conditions: 2 μL of 10 mg/mL solution on bovine hoof slice (about 100 μm), 28° C., 5 days
Method: Compounds for evaluation were each dissolved in a solution of ethyl acetate:propylene glycol (1:1) or dimethyl sulfoxide at a concentration of 10 mg/mL. 2 μL each of the solutions was added to a bovine hoof slice placed on a low-melting-point agarose. After incubation at 28° C. for 5 days, the agaroses were collected, distilled water was added thereto, and the mixtures were heated and dissolved. The concentrations of the compound in the solutions were determined using a high performance liquid chromatography/mass spectrometry apparatus to obtain the amounts of the agents permeated through the hoof and to calculate the permeabilities of the respective agents. Since the permeability of bovine hoof and human nail correlates as described in J. Pharma. Pharmacol., vol. 49, pp. 866-872, 1997, the nail permeability test was conducted using a bovine hoof in the present invention. Example compounds and comparative compounds (amorolfine hydrochloride, terbinafine hydrochloride and ciclopirox) were each dissolved in a solution of ethyl acetate:propylene glycol (1:1) or dimethyl sulfoxide at a concentration of 10 mg/mL. […] The concentrations of the compounds in the solutions were determined using a high performance liquid chromatography/mass spectrometry apparatus to obtain the amounts of the agents permeated through the nail and calculate the permeabilities of the respective agents.

Row | MIC [1] | MIC (T. rubrum ATCC10218) | Nail permeability [2] | SMILES
1 | ≤ 1 µg/mL | ≤ 2 µg/mL | E (<0.1%) | CCC(C)(C)c1ccc(CC(C)CN2C[C@@H](C)O[C@@H](C)C2)cc1 (some centres unmarked) [Amorolfine hydrochloride, reference compound]
2 | ≤ 1 µg/mL | ≤ 2 µg/mL | – | CCc1ccc(-n2nc(C)cc2C)c(O)c1 [Example 52, 2-(3,5-dimethyl-1H-pyrazol-1-yl)-5-ethylphenol]
3 | 2 to 8 µg/mL (≈ 9.7 to 38.8 µM) | 4 to 16 µg/mL (≈ 19.4 to 77.6 µM) | – | Cc1nn(-c2ccccc2O)c(C)c1F [Example 53, 2-(4-Fluoro-3,5-dimethyl-1H-pyrazol-1-yl)phenol]
4 | ≤ 1 µg/mL | ≤ 2 µg/mL | – | Cc1cc(C)n(-c2ccc(Br)cc2O)n1 [Example 54, 5-bromo-2-(3,5-dimethyl-1H-pyrazol-1-yl)phenol]
5 | ≤ 1 µg/mL | ≤ 2 µg/mL | – | Cc1nn(-c2ccc(Br)cc2O)c(C)c1Cl [Example 55, 5-bromo-2-(4-chloro-3,5-dimethyl-1H-pyrazol-1-yl)phenol]
6 | ≤ 1 µg/mL | ≤ 2 µg/mL | – | Cc1nn(-c2ccc(Br)cc2O)c(C)c1C [Example 56, 5-bromo-2-(3,4,5-trimethyl-1H-pyrazol-1-yl)phenol]
7 | 2 to 8 µg/mL | 4 to 16 µg/mL | – | CC(=O)Oc1ccc(-n2nc(C)cc2C)c(O)c1 [Example 57, 4-(3,5-dimethyl-1H-pyrazol-1-yl)-3-hydroxyphenyl acetate]
8 | 2 to 8 µg/mL | ≤ 2 µg/mL | – | CC(=O)Oc1ccc(-n2nc(C)c(Cl)c2C)c(O)c1 [Example 58, 4-(4-chloro-3,5-dimethyl-1H-pyrazol-1-yl)-3-hydroxyphenyl acetate]
9 | 2 to 8 µg/mL | 4 to 16 µg/mL | – | CC(=O)Oc1ccc(-n2nc(C)c(C)c2C)c(O)c1 [Example 59, 3-hydroxy-4-(3,4,5-trimethyl-1H-pyrazol-1-yl)phenyl acetate]
10 | 16 to 32 µg/mL (≈ 67.6 to 135 µM) | 16 to 32 µg/mL (≈ 67.6 to 135 µM) | – | Cc1cc(C)n(-c2cc(Cl)c(C)cc2O)n1 [Example 61, 4-chloro-2-(3,5-dimethyl-1H-pyrazol-1-yl)-5-methylphenol]
11 | ≤ 1 µg/mL | ≤ 2 µg/mL | – | Cc1nn(-c2ccc(O)cc2O)c(C)c1Cl [Example 63, 4-(4-chloro-3,5-dimethyl-1H-pyrazol-1-yl)benzene-1,3-diol]
12 | ≤ 1 µg/mL | ≤ 2 µg/mL | E (<0.1%) | CN(C/C=C/C#CC(C)(C)C)Cc1cccc2ccccc12 [Terbinafine hydrochloride, reference compound]
